Consider 18 compounds from ChEMBL document CHEMBL3046124, “QSAR for Binding Affinity of Substituted Dibenzoylhydrazines to Intact Sf-9 Cells” (J Pestic Sci, 2005).

The structures appear in SMILES notation.

One may read the IC50 as the concentration needed to halve the response being measured. A lower IC50 goes with higher potency.

The assay concerns the target T1, Ecdysone receptor (Spodoptera frugiperda, UniProt Q8MWR1+Q8MWR2).
T1 sequence (Q8MWR2 whole entry): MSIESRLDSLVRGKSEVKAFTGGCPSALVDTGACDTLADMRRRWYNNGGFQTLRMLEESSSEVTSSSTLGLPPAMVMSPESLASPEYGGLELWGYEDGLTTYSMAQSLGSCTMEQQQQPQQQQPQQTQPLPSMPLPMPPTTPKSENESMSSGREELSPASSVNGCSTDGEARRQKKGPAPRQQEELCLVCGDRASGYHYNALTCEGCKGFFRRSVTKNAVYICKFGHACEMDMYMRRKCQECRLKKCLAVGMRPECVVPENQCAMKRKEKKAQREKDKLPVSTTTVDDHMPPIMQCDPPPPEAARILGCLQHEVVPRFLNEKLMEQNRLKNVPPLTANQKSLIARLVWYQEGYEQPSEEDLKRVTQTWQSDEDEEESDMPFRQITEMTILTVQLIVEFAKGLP
T1 sequence (Q8MWR1 whole entry): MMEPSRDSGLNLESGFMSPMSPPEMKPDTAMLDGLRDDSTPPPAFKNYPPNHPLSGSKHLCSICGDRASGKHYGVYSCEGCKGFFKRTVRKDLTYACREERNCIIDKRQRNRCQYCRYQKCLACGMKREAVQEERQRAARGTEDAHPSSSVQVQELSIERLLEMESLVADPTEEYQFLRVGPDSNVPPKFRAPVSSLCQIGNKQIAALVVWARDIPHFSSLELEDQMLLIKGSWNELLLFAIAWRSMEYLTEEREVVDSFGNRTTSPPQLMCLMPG
The experiment in a line: Displacement of [3H]PonA from ecdysone receptor in Spodoptera frugiperda (fall armyworm) Sf-9 cells after 30 min by liquid scintillation counting. Format: cell-based. Background: In a radioligand displacement assay an active substance lowers the binding of a labelled ligand.
`CC(C)(C)N(NC(=O)c1ccc(F)cc1)C(=O)c1ccccc1Cl` had an IC50 of 51.3 nM. In turn, `CC(C)(C)N(NC(=O)c1ccc(I)cc1)C(=O)c1ccccc1Cl` had an IC50 of 50.1 nM.

The compound `CC(C)(C)N(NC(=O)c1ccc(S(C)(=O)=O)cc1)C(=O)c1ccccc1Cl` showed an IC50 of 2880 nM.

For `CC(C)c1ccc(C(=O)NN(C(=O)c2ccccc2Cl)C(C)(C)C)cc1`, the IC50 is 15.1 nM. Against the preceding compound, the IC50 is about 190-fold lower. Compound `CC(=O)c1ccc(C(=O)NN(C(=O)c2ccccc2Cl)C(C)(C)C)cc1` gave an IC50 of 427 nM.

For the compound `CCCc1ccc(C(=O)NN(C(=O)c2ccccc2Cl)C(C)(C)C)cc1`, the IC50 was 22.9 nM. Compound `CC(C)(C)N(NC(=O)c1ccccc1)C(=O)c1ccccc1Cl` gave an IC50 of 83.2 nM. Against the preceding compound, the IC50 is about 3.6-fold higher. Take `CC(C)(C)N(NC(=O)c1ccc([N+](=O)[O-])cc1)C(=O)c1ccccc1Cl`: the IC50 was 380 nM.

`CC(C)(C)N(NC(=O)c1ccc(C(F)(F)F)cc1)C(=O)c1ccccc1Cl` showed an IC50 of 110 nM. In turn, `CC(C)(C)N(NC(=O)c1ccc(Br)cc1)C(=O)c1ccccc1Cl` gave an IC50 of 20.4 nM. Consider `COc1ccc(C(=O)NN(C(=O)c2ccccc2Cl)C(C)(C)C)cc1`, for which the IC50 was 61.7 nM. `CC(C)(C)N(NC(=O)c1ccc(-c2ccccc2)cc1)C(=O)c1ccccc1Cl` showed an IC50 of 6760 nM. Next, `CC(C)(C)c1ccc(C(=O)NN(C(=O)c2ccccc2Cl)C(C)(C)C)cc1`: 21.9 nM; `Cc1ccc(C(=O)NN(C(=O)c2ccccc2Cl)C(C)(C)C)cc1`: 52.5 nM; `CC(C)(C)N(NC(=O)c1ccc(Cl)cc1)C(=O)c1ccccc1Cl`: 129 nM. Turning to `CC(C)(C)N(NC(=O)c1ccc(C#N)cc1)C(=O)c1ccccc1Cl`, the IC50 is 1820 nM. As to `CCCCc1ccc(C(=O)NN(C(=O)c2ccccc2Cl)C(C)(C)C)cc1`, the IC50 is 5.37 nM.

`CCc1ccc(C(=O)NN(C(=O)c2ccccc2Cl)C(C)(C)C)cc1` gave an IC50 of 12.9 nM.
